{"source": "patent US7098232B1", "about": "“Treatment and prevention of gastrointestinal disease using antagonists of partial agonists of 5HT1a receptors” (Athpharma Limited, priority 1999, dated 2006)", "key": {"[1]": {"test_system": "patients suffering from non-ulcerative dyspepsia", "assay": "Clinical study of pindolol in non-ulcerative dyspepsia (GSRS scores)", "assay_type": "in vivo, humans", "conditions": "2.5 mg three times daily", "procedure": "The invention is intended for the treatment of mammals, including humans.\nEleven patients suffering from non-ulcerative dyspepsia were recruited to a clinical study and gave informed consent. All were treated with pindolol 2.5 mg three times daily. […] A further patient improved in the second week. Their responses were quantified using a standard rating scale (GSRS scores)."}, "5HT1a receptor": {"target": "T1, 5HT1a receptor (Homo sapiens, UniProt P08908)", "T1 construct": "Buspirone (30mg) or, matching placebo was administered orally; from tissue; host or cells: living human subjects (central receptors)", "T1 sequence (P08908 1-422)": "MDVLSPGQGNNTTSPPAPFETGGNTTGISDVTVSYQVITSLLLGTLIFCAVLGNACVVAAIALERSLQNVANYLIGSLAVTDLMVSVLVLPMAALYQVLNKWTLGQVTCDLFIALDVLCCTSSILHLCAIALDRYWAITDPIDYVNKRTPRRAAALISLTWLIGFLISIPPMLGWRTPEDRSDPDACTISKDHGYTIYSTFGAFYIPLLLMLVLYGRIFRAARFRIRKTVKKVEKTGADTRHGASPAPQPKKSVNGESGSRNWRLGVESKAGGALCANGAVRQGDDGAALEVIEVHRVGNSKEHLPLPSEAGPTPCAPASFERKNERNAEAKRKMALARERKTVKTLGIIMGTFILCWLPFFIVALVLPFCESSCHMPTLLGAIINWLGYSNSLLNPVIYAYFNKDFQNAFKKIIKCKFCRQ", "assay": "Buspirone challenge, prolactin release", "assay_type": "in vivo", "conditions": "buspirone 30 mg orally; for Prolactin AUC (mean±SD): blood 0-180 min", "source_text": "Studies indicate that a central 5HT1a receptor hypersensitivity may be involved in the pathophysiology of NUD (13,14). The release of prolactin from the anterior pituitary is under dopamine inhibition and under 5HT stimulation, probably at the level of the hypothalamus (15).\nA total of 109 subjects, 50 NUD patients (39 female/11 male) and 59 healthy comparison subjects ([…]) gave fully informed consent to take part in the study, which had Ethics Committee approval. […] Buspirone (30mg) or, matching placebo was administered orally at 0900 h (Time 0). Blood was taken at 0, 30, 60, 90, 120 and 180 min."}, "gastric emptying": {"test_system": "gastric emptying", "conditions": "intracerebroventricular injection, animal studies; cited from earlier work"}}, "data": [{"smiles": "CC(C)NCC(O)COc1cccc2[nH]ccc12", "note": "(racemic) [pindolol]", "values": [{"measurement": "Mean GSRS Score", "setting": "[1]; Week 0 (baseline), average of 11 patients", "value": 9}, {"measurement": "Mean GSRS Score", "setting": "[1]; Week 1, average of 11 patients", "value": 4.2}, {"measurement": "Mean GSRS Score", "setting": "[1]; Week 2, average of 11 patients", "value": 3.5}, {"measurement": "Mean GSRS Score", "setting": "[1]; Week 3, average of 11 patients", "value": 2.9}, {"measurement": "Reduction in average symptom severity", "setting": "[1]; in three weeks", "value": "approximately 68%"}, {"measurement": "Patients with significant improvement in symptoms", "setting": "[1]; within 1 week of commencing treatment", "value": "Seven of the 11"}]}, {"smiles": "O=C1CC2(CCCC2)CC(=O)N1CCCCN1CCN(c2ncccn2)CC1", "note": "[Buspirone]", "values": [{"measurement": "Prolactin AUC (mean±SD)", "setting": "5HT1a receptor; NUD patients", "value": "46±35"}, {"measurement": "Prolactin levels after challenge", "setting": "5HT1a receptor; all subjects", "value": "rose in all subjects"}, {"measurement": "Prolactin AUC (mean±SD)", "setting": "5HT1a receptor; healthy subjects", "value": "24±35"}]}, {"smiles": "CCNC(C)Cc1cccc(C(F)(F)F)c1", "note": "(stereo not shown) [fenfluramine]", "values": [{"measurement": "Effect on gastric emptying", "setting": "gastric emptying", "value": "inhibits gastric emptying"}]}]}
